Measured values taken from publication PMC6522510 (Nature Communications, 2019).
Read-outs that look alike come from different tables or passages of the source. Numbered stars: 1 amine (or outer) side, 2 acyl side, 3 side chain; on linkers, the order of the positions; unused ones are H or OH. Bridge positions count the residues as written; N and C are the ends. Square brackets hold non-standard residues; d marks the D form. Peptide text beside a SMILES is read from it. I, II: the chains in the order shown. Actinocin(9to1) = Cc1c2oc3c(C)ccc(C(=O)[*:1])c3nc-2c(C(=O)[*:2])c(N)c1=O; NMeV = CN[C@H](C(=O)O)C(C)C; Sar = CNCC(=O)O

Key:
Experiment in all cases: Secondary dose-response HTS, Cell Titer Glo; call rule not given here
Type in all cases: cell-based, human
CHRF288-11 = conditions: for EC50: Homo sapiens, HTS
U937 = conditions: for EC50: Homo sapiens, U-937
M07e = conditions: for EC50: Homo sapiens, M-07e
CMS = conditions: for EC50: Homo sapiens
CMK = conditions: CMK; for average effective concentration, CMK: secondary high-throughput screen; for EC50: Homo sapiens
MOLM-13 = conditions: MOLM-13
ML2 = conditions: ML-2; for EC50: Homo sapiens
MV4-11 = conditions: MV4-11; for EC50: Homo sapiens
[1] = secondary high-throughput screen, CHRF288-11
[2] = secondary high-throughput screen, U937
[3] = secondary high-throughput screen, M07e
[4] = secondary high-throughput screen, CMS
[5] = secondary high-throughput screen
[6] = secondary high-throughput screen, CHRF288-11, read-out: average effective concentration, CHRF288-11
[7] = secondary high-throughput screen, U937, read-out: average effective concentration, U937
[8] = secondary high-throughput screen, M07e, read-out: average effective concentration, M07e
[9] = HTS, read-out: average effective concentration, CMS
[10] = read-out: average effective concentration, CMK
[11] = Homo sapiens, secondary high-throughput screen, read-out: average effective concentration, MOLM-13
[12] = secondary high-throughput screen, read-out: average effective concentration, ML-2
[13] = secondary high-throughput screen, read-out: average effective concentration, MV4-11

CCCCCCCCCCCCCCCc1cccc(OCC)c1C(=O)Nc1ccc(Cl)c(C(F)(F)F)c1 [CTPB]
average effective concentration, CHRF288-11 (CHRF288-11; [1]): Inactive | average effective concentration, U937 (U937; [2]): Inactive | average effective concentration, M07e (M07e; [3]): Inactive | average effective concentration, CMS (CMS; [4]): Inactive | average effective concentration, CMK (CMK): Inactive | EC50 (MOLM-13; secondary high-throughput screen, read-out: average effective concentration, MOLM-13): 900 nM | average effective concentration, ML-2 (ML2; [5]): Inactive | average effective concentration, MV4-11 (MV4-11; [5]): Inactive

N#CC(=C(/N)Sc1ccccc1N)/C(C#N)=C(/N)Sc1ccccc1N [Compound U0126]
average effective concentration, CHRF288-11 (CHRF288-11; [1]): Inactive | average effective concentration, U937 (U937; [2]): Inactive | average effective concentration, M07e (M07e; [3]): Inactive | average effective concentration, CMS (CMS; [4]): Inactive | average effective concentration, CMK (CMK): Inactive | average effective concentration, MOLM-13 (MOLM-13; [5]): Inactive | average effective concentration, ML-2 (ML2; [5]): Inactive | average effective concentration, MV4-11 (MV4-11; [5]): Inactive

C[C@H]1[C@@H](O)O[C@@H]2O[C@@]3(C)CC[C@H]4[C@H](C)CC[C@@H]1[C@@]24OO3 [DIHYDROARTEMISININ]
EC50 (CHRF288-11; [6]): 9500 nM | EC50 (U937; [7]): 2300 nM | EC50 (M07e; [8]): > 10000 nM | EC50 (CMS; [9]): > 10000 nM | EC50 (CMK; [10]): > 10000 nM | EC50 (MOLM-13; [11]): 8300 nM | EC50 (ML2; [12]): 9000 nM | EC50 (MV4-11; [13]): 2800 nM

Cc1c2oc3c(C)ccc(C(=O)N[C@@H]4C(=O)N[C@H](C(C)C)C(=O)N5CCC[C@H]5C(=O)N(C)CC(=O)N(C)[C@@H](C(C)C)C(=O)O[C@@H]4C)c3nc-2c(C(=O)N[C@@H]2C(=O)N[C@H](C(C)C)C(=O)N3CCC[C@H]3C(=O)N(C)CC(=O)N(C)[C@@H](C(C)C)C(=O)O[C@@H]2C)c(N)c1=O [Dactinomycin, reference compound] (I: T[dV]P[Sar][NMeV] / II: T[dV]P[Sar][NMeV]; ester I:1-I:C, II:1-II:C; linker I:N-II:N via Actinocin(9to1))
EC50 (CHRF288-11; 72 h, secondary HTS, 72 h, average of triplicate, read-out: EC50 CHRF288-11): 1 nM | EC50 (U937; secondary HTS, 72 h, average of triplicate, read-out: EC50 U937): 1 nM | EC50 (M07e; secondary HTS, 72 h, average of triplicate, read-out: EC50 M07e): 1 nM | EC50 (CMS; HTS, secondary high-throughput screen, CMS, read-out: average effective concentration, CMS): 36 nM | EC50 (CMS; secondary HTS, 72 h, average of triplicate, read-out: EC50 CMS): 40 nM | EC50 (CMK; secondary HTS, 72 h, average of triplicate, read-out: EC50 CMK): 1 nM | EC50 (MOLM-13; Homo sapiens, secondary HTS, 72 h, average of triplicate, read-out: EC50 MOLM-13): 30 nM | EC50 (MOLM-13; [11]): 29 nM | EC50 (ML2; secondary HTS, 72 h, average of triplicate, read-out: EC50 ML2): 1 nM | EC50 (MV4-11; secondary HTS, 72 h, average of triplicate, read-out: EC50 MV4-11): 40 nM | EC50 (MV4-11; [13]): 43 nM

C#Cc1cccc(Nc2ncnc3cc(OCCOC)c(OCCOC)cc23)c1 [ERLOTINIB]
average effective concentration, CHRF288-11 (CHRF288-11; [1]): Inactive | average effective concentration, U937 (U937; [2]): Inactive | average effective concentration, M07e (M07e; [3]): Inactive | average effective concentration, CMS (CMS; [4]): Inactive | average effective concentration, CMK (CMK): Inactive | EC50 (MOLM-13; [11]): > 10000 nM | average effective concentration, ML-2 (ML2; [5]): Inactive | EC50 (MV4-11; [13]): > 10000 nM

Cc1cnc(Nc2ccc(OCCN3CCCC3)cc2)nc1Nc1cccc(S(=O)(=O)NC(C)(C)C)c1 [FEDRATINIB]
EC50 (CHRF288-11; [6]): 760 nM | EC50 (U937; [7]): 2900 nM | EC50 (M07e; [8]): 2000 nM | EC50 (CMS; [9]): 700 nM | EC50 (CMK; [10]): 240 nM | EC50 (MOLM-13; [11]): 51 nM | EC50 (ML2; [12]): 2900 nM | EC50 (MV4-11; [13]): 82 nM

Cc1ccc(C(=O)COC(=O)c2cccc(NC(=O)c3ccc([N+](=O)[O-])cc3[N+](=O)[O-])c2)cc1 [FM19G11]
average effective concentration, CHRF288-11 (CHRF288-11; [1]): Inactive | average effective concentration, U937 (U937; [2]): Inactive | average effective concentration, M07e (M07e; [3]): Inactive | average effective concentration, CMS (CMS; [4]): Inactive | average effective concentration, CMK (CMK): Inactive | average effective concentration, MOLM-13 (MOLM-13; [5]): Inactive | average effective concentration, ML-2 (ML2; [5]): Inactive | average effective concentration, MV4-11 (MV4-11; [5]): Inactive

Nc1[nH]nc2nnc(-c3c(-c4ccccc4)nn4ccccc34)cc12 [FR 180204]
average effective concentration, CHRF288-11 (CHRF288-11; [1]): Inactive | average effective concentration, U937 (U937; [2]): Inactive | average effective concentration, M07e (M07e; [3]): Inactive | average effective concentration, CMS (CMS; [4]): Inactive | average effective concentration, CMK (CMK): Inactive | average effective concentration, MOLM-13 (MOLM-13; [5]): Inactive | average effective concentration, ML-2 (ML2; [5]): Inactive | average effective concentration, MV4-11 (MV4-11; [5]): Inactive

CSCC[C@H](NC(=O)[C@H](Cc1ccccc1)NC[C@@H](NC[C@@H](N)CS)C(C)C)C(=O)O [FTASE INHIBITOR I]
average effective concentration, CHRF288-11 (CHRF288-11; [1]): Inactive | average effective concentration, U937 (U937; [2]): Inactive | average effective concentration, M07e (M07e; secondary high-throughput screen, […]): Inactive | average effective concentration, CMS (CMS; [4]): Inactive | average effective concentration, CMK (CMK): Inactive | average effective concentration, MOLM-13 (MOLM-13; [5]): Inactive | average effective concentration, ML-2 (ML2; [5]): Inactive | average effective concentration, MV4-11 (MV4-11; [5]): Inactive

COC(=O)[C@H](CCSC)NC(=O)c1ccc(NC[C@@H](N)CS)cc1-c1ccccc1 [FTI-277]
average effective concentration, CHRF288-11 (CHRF288-11; [1]): Inactive | average effective concentration, U937 (U937; [2]): Inactive | average effective concentration, M07e (M07e; [3]): Inactive | average effective concentration, CMS (CMS; [4]): Inactive | average effective concentration, CMK (CMK): Inactive | average effective concentration, MOLM-13 (MOLM-13; [5]): Inactive | average effective concentration, ML-2 (ML2; [5]): Inactive | average effective concentration, MV4-11 (MV4-11; [5]): Inactive
